Measurements taken from patent US9408885B2, “Combinations of therapeutic agents for treating melanoma” (VIB VZW, priority 2011, dated 2016).

Assays:
MM031 melanoma cells = details: MM031, 6.25-50 μM Cisplatin or 25-200 μM Melphalan, 24 hours
Procedure: (§4) Cell viability was measured at 24 hours by CellTiter-Glo assay. Data represent the mean (±SD) of at least three biological replicates. […] Data represent the mean (±SD) of at least three biological replicates. […] Data represent the mean (±SD) of at least three biological replicates.

MM011 melanoma cells = details: MM011, 6.25-50 μM Cisplatin or 25-200 μM Melphalan, 24 hours
Procedure: as §4

[1] = tested on: MDM4 protein in A375 cells; experiment: MDM4 protein expression level, A375; format: cell-based, human; details: A375, 5 μM, 24 hours
Procedure: (§1) FIG. 4: AKT inhibitors destabilize the MDM4 protein levels in melanomas.
(§2) In the present example we applied the Akt IV inhibitor on two different melanoma cell lines (i.e., the human amelanotic melanoma cell line A375 and the metastatic 451-lu human melanoma cell line, the latter also described in D. Herlyn et al. (1990), Cancer Research 50, 2296-2302).
(§3) Cells, adult tissue samples, or tumors were lysed in Giordano buffer (50 mM Tris-HCl (pH 7.4); 250 mM NaCl; 0.1% Triton X-100; 5 mM EDTA) containing phosphatase and protease inhibitors (Sigma). The adult tissue samples were sonicated three times 10 sec. The protein concentration was determined by Bradford assay (OD 595 nm; Bio-Rad Protein Assay) and 40 μg of each sample were fractionated by SDS-PAGE (Invitrogen; NuPAGE® Novex® 4-12% Bis-Tris Gel). The fractionated extracts were then transferred to a PVDF membrane (iBlot® Dry Blotting System). Membranes were blocked in Tris-buffered saline, 0.2% Tween-20 (TBST) containing 5% or 10% non-fat dry milk, and subsequently incubated with the appropriate primary antibody. […] After five washes with TBST, proteins were detected by enhanced chemiluminescense “ECL Western Blotting Detection Reagents” (Amersham Biosciences) or “SuperSignal West Femto Maximum Sensitivity Substrate” (Thermo Scientific) and visualized by exposure to X-ray film (Amersham Biosciences). […]

[2] = tested on: MDM4 protein in 451-lu cells; experiment: MDM4 protein expression level, 451-lu; format: cell-based, human; details: 5 μM, 24 hours
Procedure: as §1, §2, §3

[3] = tested on: p53 pathway in MM cell lines overexpressing MDM4; experiment: p53 tumor suppressor response (p53 and p21 protein levels) in short-term cultured melanoma cell lines; format: cell-based, human; details: all but one (MM87) of the cell lines overexpressing MDM4; nutlin-3 at high concentrations
Procedure: Cells, adult tissue samples, or tumors were lysed in Giordano buffer (50 mM Tris-HCl (pH 7.4); 250 mM NaCl; 0.1% Triton X-100; 5 mM EDTA) containing phosphatase and protease inhibitors (Sigma). The adult tissue samples were sonicated three times 10 sec. […] The fractionated extracts were then transferred to a PVDF membrane (iBlot® Dry Blotting System). Membranes were blocked in Tris-buffered saline, 0.2% Tween-20 (TBST) containing 5% or 10% non-fat dry milk, and subsequently incubated with the appropriate primary antibody. Membranes were washed five times with TBST and incubated with either horseradish peroxidase-conjugated horse anti-mouse or goat anti-rabbit secondary antibody (Cell Signaling). After five washes with TBST, proteins were detected by enhanced chemiluminescense “ECL Western Blotting Detection Reagents” (Amersham Biosciences) or “SuperSignal West Femto Maximum Sensitivity Substrate” (Thermo Scientific) and visualized by exposure to X-ray film (Amersham Biosciences).

SMILES | growth inhibition, alkylating agent alone (MM031 melanoma cells) | growth inhibition, alkylating agent alone (MM011 melanoma cells) | p53 protein levels and p21 expression [3] | other results
N.N.[Cl][Pt][Cl] [cisplatin] | variable growth inhibition effects | variable growth inhibition effects | – | –
CC[n+]1c(/C=C/N(C)c2ccccc2)n(-c2ccccc2)c2ccc(-c3nc4ccccc4s3)cc21.[I-] [Akt IV inhibitor] | – | – | – | protein expression level of MDM4 [1]: down-regulate; protein expression level of MDM4 [2]: down-regulate
COc1cccc2c1C(=O)c1c(O)c3c(c(O)c1C2=O)C[C@@](O)(C(=O)CO)C[C@@H]3O[C@H]1C[C@H](N)[C@H](O)[C@H](C)O1 [doxorubicin] | – | – | increased p53 protein levels and induction of expression of p21 | –
COc1ccc(C2=N[C@@H](c3ccc(Cl)cc3)[C@@H](c3ccc(Cl)cc3)N2C(=O)N2CCNC(=O)C2)c(OC(C)C)c1 [nutlin-3] | – | – | increased p53 protein levels and induction of expression of p21 | –
N[C@@H](Cc1ccc(N(CCCl)CCCl)cc1)C(=O)O [melphalan] | variable growth inhibition effects | variable growth inhibition effects | – | –
